Data reported in US20070270421A1, “Novel pyridine Derivative and Pyrimidine Derivative (1)” (priority 2004, published 2007).

Target: T1, HGFR (His6-HGFR cytoplasmic domain) (Homo sapiens, UniProt P08581)
T1 construct: made in house; host or cells: Spodoptera frugiperda Sf9 insect cells (baculovirus, pFastBac-HT)
Assay: Inhibitory activity against HGFR tyrosine kinase activity (HTRF)
Type: biochemical
Settings: biotin-poly(GT), ATP, 30° C. 10 min, read-out: IC50 (concentration necessary to inhibit HGFR kinase activity by 50%)
Method in brief: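 Baculovirus/Sf9-expressed N-terminal His6-tagged HGFR cytoplasmic domain (from Lys974), Ni-NTA purified, phosphorylated biotin-poly(GT) in Hepes pH 7.4 with MgCl2/MnCl2. ATP added as 4 μM solution; 10 min at 30° C., stopped with EDTA. Phosphotyrosine product detected by HTRF.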

T1 sequence (P08581 956-1390 limits assumed): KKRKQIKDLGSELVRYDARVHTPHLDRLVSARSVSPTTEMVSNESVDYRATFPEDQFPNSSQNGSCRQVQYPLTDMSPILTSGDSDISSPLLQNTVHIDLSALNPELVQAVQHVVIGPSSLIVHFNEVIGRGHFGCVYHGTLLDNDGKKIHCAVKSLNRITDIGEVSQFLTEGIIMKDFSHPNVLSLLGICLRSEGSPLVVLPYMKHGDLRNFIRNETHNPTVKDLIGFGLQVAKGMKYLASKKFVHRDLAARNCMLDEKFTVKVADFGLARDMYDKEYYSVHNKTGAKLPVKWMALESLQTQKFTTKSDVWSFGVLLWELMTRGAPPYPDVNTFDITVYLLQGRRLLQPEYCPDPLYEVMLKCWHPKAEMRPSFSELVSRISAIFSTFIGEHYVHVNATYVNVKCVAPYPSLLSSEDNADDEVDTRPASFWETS

Structure (SMILES): CN(C)CCN1CCN(C(=O)Nc2cc(Oc3ccc(NC(=S)NC(=O)Cc4ccc(F)cc4)cc3)ccn2)CC1 [Example 327, 2-{[4-(2-Dimethylaminoethyl)piperazin-1-yl]carbonylamino}-4-(4-{3-[2-(4-fluorophenyl)acetyl]thioureido}phenoxy)pyridine]
- IC50: 75 nM

Structure (SMILES): CN(C)CCN1CCC(N(C)C(=O)Nc2cc(Oc3ccc(NC(=S)NC(=O)Cc4ccccc4)cc3F)ccn2)CC1 [Example 223, 1-[1-(2-Dimethylaminoethyl)piperidin-4-yl]-3-{4-[2-fluoro-4-(3-phenylacetylthioureido)phenoxy]pyridin-2-yl}-1-methylurea]
- IC50: 58 nM

Structure (SMILES): O=C(CC(=O)Nc1ccc(Oc2ccnc(NC(=O)N3CCCC3)c2)c(Cl)c1)Nc1ccc(F)cc1 [Example 67, N-(3-Chloro-4-{2-[(pyrrolidine-1-carbonyl)amino]pyridin-4-yloxy}phenyl)-N′-(4-fluorophenyl)malonamide]
- IC50: 67 nM

Structure (SMILES): CN(C)C1CCN(C(=O)Nc2cc(Oc3ccc(NC(=S)NC(=O)Cc4ccccc4)cc3F)ccn2)CC1 [Example 38, 2-{[4-(Dimethylamino)piperidin-1-yl]carbonylamino}-4-{2-fluoro-4-[3-(2-phenylacetyl)thioureido]phenoxy}pyridine]
- IC50: 26 nM

Structure (SMILES): CN(C)CCN1CCN(C(=O)Nc2cc(Oc3ccc(NC(=S)NC(=O)Cc4ccc(F)cc4)cc3F)ncn2)CC1 [Example 181, 4-{[4-(2-Dimethylaminoethyl)piperazin-1-yl]carbonylamino}-6-(2-fluoro-4-{3-[2-(4-fluorophenyl)acetyl]thioureido}phenoxy)pyrimidine]
- IC50: 41 nM

Structure (SMILES): CN(C)C(=O)Nc1cc(Oc2ccc(NC(=S)NC(=O)Cc3ccc(F)cc3)cc2F)ncn1 [Example 7, 3-[6-(2-Fluoro-4-{3-[2-(4-fluorophenyl)acetyl]thioureido}phenoxy)pyrimidin-4-yl]-1,1-dimethylurea]
- IC50: 18 nM

Structure (SMILES): CC(=O)N1CCC(N(C)C(=O)Nc2cc(Oc3ccc(NC(=S)NC(=O)Cc4ccc(F)cc4)cc3F)ccn2)CC1 [Example 301, 1-(1-Acetylpiperidin-4-yl)-3-[4-(2-fluoro-4-{3-[2-(4-fluorophenyl)acetyl]thioureido}phenoxy)pyridin-2-yl]-1-methylurea]
- IC50: 28 nM

Structure (SMILES): O=C(Cc1ccccc1)NC(=S)Nc1ccc(Oc2ccnc(NC(=O)N3CCC(CN4CCC4)CC3)c2)c(F)c1 [Example 395, 4-(Azetidin-1-ylmethyl)piperidine-1-carboxylic acid {4-[2-fluoro-4-(3-phenylacetylthioureido)phenoxy]pyridin-2-yl}amide]
- IC50: 47 nM

Structure (SMILES): CCN(CC)CCCN(C)C(=O)Nc1cc(Oc2ccc(NC(=O)NC(=O)Cc3ccccc3)cc2F)ccn1 [Example 49, 1-(3-Diethylaminopropyl)-3-{4-[2-fluoro-4-(3-phenylacetylureido)phenoxy]pyridin-2-yl}-1-methylurea]
- IC50: 210 nM

Structure (SMILES): CN(C)C(=O)Nc1cc(Oc2ccc(NC(=O)NC(=O)Cc3ccccc3)c(F)c2)ccn1 [Example 54, 3-{4-[3-Fluoro-4-(3-phenylacetylureido)phenoxy]pyridin-2-yl}-1,1-dimethylurea]
- IC50: 43 nM

Structure (SMILES): CN1CCN(CCCN(C)C(=O)Nc2cc(Oc3ccc(NC(=O)CC(=O)Nc4ccc(F)cc4)c(F)c3)ccn2)CC1 [Example 93, N-[2-Fluoro-4-(2-{3-methyl-3-[3-(4-methylpiperazin-1-yl)propyl]ureido}pyridin-4-yloxy)phenyl]-N′-(4-fluorophenyl)malonamide]
- IC50: 93 nM

Structure (SMILES): CN(C)CCCN1CCC(N(C)C(=O)Nc2cc(Oc3ccc(NC(=S)NC(=O)Cc4ccc(F)cc4)cc3F)ccn2)CC1 [Example 225, 1-[1-(3-Dimethylaminopropyl)piperidin-4-yl]-3-[4-(2-fluoro-4-{3-[2-(4-fluorophenyl)acetyl]thioureido}phenoxy)pyridin-2-yl]-1-methylurea]
- IC50: 79 nM

Structure (SMILES): CC(=O)N1CCC(N(C)C(=O)Nc2cc(Oc3ccc(NC(=S)NC(=O)Cc4ccc(F)cc4)cc3F)ncn2)CC1 [Example 314, 1-(1-Acetylpiperidin-4-yl)-3-[6-(2-fluoro-4-{3-[2-(4-fluorophenyl)acetyl]thioureido}phenoxy)pyrimidin-4-yl]-1-methylurea]
- IC50: 31 nM

Structure (SMILES): CN1CCC(N(C)C(=O)Nc2cc(Oc3ccc(NC(=S)NC(=O)Cc4ccc(F)cc4)cc3F)ncn2)CC1 [Example 170, 3-[6-(2-Fluoro-4-{3-[2-(4-fluorophenyl)acetyl]thioureido}phenoxy)pyrimidin-4-yl]-1-methyl-1-(1-methylpiperidin-4-yl)urea]
- IC50: 66 nM

Structure (SMILES): Cc1cc(Oc2ccnc(NC(=O)N(C)C)c2)ccc1NC(=O)CC(=O)Nc1ccc(F)cc1 [Example 86, N-{4-[2-(3,3-Dimethylureido)pyridin-4-yloxy]-2-methylphenyl}-N′-(4-fluorophenyl)malonamide]
- IC50: 55 nM

Structure (SMILES): CN1CCC(N2CCN(C(=O)Nc3cc(Oc4ccc(NC(=S)NC(=O)Cc5ccc(F)cc5)cc4)ccn3)CC2)CC1 [Example 329, 4-(4-{3-[2-(4-Fluorophenyl)acetyl]thioureido}phenoxy)-2-{[4-(1-methylpiperidin-4-yl)piperazin-1-yl]carbonylamino}pyridine]
- IC50: 64 nM

Structure (SMILES): CN1CC(N2CCC(N(C)C(=O)Nc3cc(Oc4ccc(NC(=S)NC(=O)Cc5ccc(F)cc5)cc4)ccn3)CC2)C1 [Example 331, 3-(4-{4-[3-(4-Fluorophenyl)acetylthioureido]phenoxy}pyridin-2-yl)-1-methyl-1-[1-(1-methylazetidin-3-yl)piperidin-4-yl]urea]
- IC50: 84 nM

Structure (SMILES): O=C(Cc1ccccc1)NC(=S)Nc1ccc(Oc2cc(NC(=O)N3CCC(CN4CCC4)CC3)ncn2)c(F)c1 [Example 393, 4-(Azetidin-1-ylmethyl)piperidine-1-carboxylic acid {6-[2-fluoro-4-(3-phenylacetylthioureido)phenoxy]pyrimidin-4-yl}amide]
- IC50: 56 nM

Structure (SMILES): O=C(CC(=O)Nc1c(F)cccc1F)Nc1ccc(Oc2ccnc(NC(=O)N3CCCC3)c2)c(F)c1 [Example 59, N-(2,6-Difluorophenyl)-N′-(3-fluoro-4-{2-[(pyrrolidine-1-carbonyl)amino]pyridin-4-yloxy}phenyl)malonamide]
- IC50: 100 nM

Structure (SMILES): O=C(CC(=O)NC1CCCCCC1)Nc1ccc(Oc2ccnc(NC(=O)N3CCCC3)c2)c(F)c1 [Example 61, N-Cycloheptyl-N′-(3-fluoro-4-{2-[(pyrrolidine-1-carbonyl)amino]pyridin-4-yloxy}phenyl)malonamide]
- IC50: < 30 nM

Structure (SMILES): O=C(Cc1ccc(F)cc1)NC(=O)Nc1ccc(Oc2ccnc(NC(=O)N3CCC(N4CCC4)CC3)c2)cc1F [Example 178, 4-(Azetidin-1-yl)piperidine-1-carboxylic acid [4-(3-fluoro-4-{3-[2-(4-fluorophenyl)acetyl]ureido}phenoxy)pyridin-2-yl]amide]
- IC50: 63 nM

Structure (SMILES): O=C(Cc1ccccc1)NC(=O)Nc1ccc(Oc2ccnc(NC(=O)N3CCCC3)c2)cc1Cl [Example 47, Pyrrolidine-1-carboxylic acid {4-[3-chloro-4-(3-phenylacetylureido)phenoxy]pyridin-2-yl}amide]
- IC50: 100 nM

Structure (SMILES): CN1CCC(N2CCN(C(=O)Nc3cc(Oc4ccc(NC(=S)NC(=O)Cc5ccccc5)cc4F)ccn3)CC2)CC1 [Example 326, 4-{2-Fluoro-4-[3-(2-phenylacetyl)thioureido]phenoxy}-2-{[4-(1-methylpiperidin-4-yl)piperazin-1-yl]carbonylamino}pyridine]
- IC50: 130 nM

Structure (SMILES): CN(C)CC1CCN(C(=O)Nc2cc(Oc3ccc(NC(=S)NC(=O)Cc4ccc(F)cc4)cc3F)ncn2)CC1 [Example 180, 4-{[4-(Dimethylaminomethyl)piperidin-1-yl]carbonylamino}-6-(2-fluoro-4-{3-[2-(4-fluorophenyl)acetyl]thioureido}phenoxy)pyrimidine]
- IC50: 38 nM

Structure (SMILES): CN(C)C1CN(C2CCN(C(=O)Nc3cc(Oc4ccc(NC(=S)NC(=O)Cc5ccc(F)cc5)cc4)ccn3)CC2)C1 [Example 195, 4-[3-(Dimethylamino)azetidin-1-yl]piperidine-1-carboxylic acid [4-(4-{3-[2-(4-fluorophenyl)acetyl]thioureido}phenoxy)pyridin-2-yl]amide]
- IC50: 57 nM

Structure (SMILES): O=C(Cc1ccccc1)NC(=O)Nc1ccc(Oc2cc(NC(=O)N3CCCC3)ncn2)c(F)c1 [Example 46, Pyrrolidine-1-carboxylic acid {6-[2-fluoro-4-(3-phenylacetylureido)phenoxy]pyrimidin-4-yl}amide]
- IC50: 45 nM

Structure (SMILES): CN(C)CCN1CCC(N(C)C(=O)Nc2cc(Oc3ccc(NC(=S)NC(=O)Cc4ccc(F)cc4)cc3)ccn2)CC1 [Example 194, 1-[1-(2-Dimethylaminoethyl)piperidin-4-yl]-3-[4-(4-{3-[2-(4-fluorophenyl)acetyl]thioureido}phenoxy)pyridin-2-yl]-1-methylurea]
- IC50: 62 nM

Structure (SMILES): O=C(Cc1ccc(F)cc1)NC(=S)Nc1ccc(Oc2cc(NC(=O)N3CCN(CCN4CCCC4)CC3)ncn2)c(F)c1 [Example 339, 4-(2-Pyrrolidin-1-ylethyl)piperazine-1-carboxylic acid [6-(2-fluoro-4-{3-[2-(4-fluorophenyl)acetyl]thioureido}phenoxy)pyrimidin-4-yl]amide]
- IC50: 130 nM

Structure (SMILES): CC(=O)Nc1cc(Oc2ccc(NC(=O)CC(=O)Nc3ccc(F)cc3)c(F)c2)ccn1 [Example 74, N-(4-Fluorophenyl)-N′-[4-(2-acetylaminopyridin-4-yloxy)-2-fluorophenyl]malonamide]
- IC50: 33 nM

Structure (SMILES): CN(C)CC1CCN(C(=O)Nc2cc(Oc3ccc(NC(=S)NC(=O)Cc4ccccc4)cc3F)ccn2)CC1 [Example 311, 2-{[4-(Dimethylaminomethyl)piperidin-1-yl]carbonylamino}-4-(2-fluoro-4-{3-[2-(phenyl)acetyl]thioureido}phenoxy)pyridine]
- IC50: 48 nM

Structure (SMILES): CN(C)CCN1CCN(C(=O)Nc2cc(Oc3ccc(NC(=O)NC(=O)Cc4ccc(F)cc4)cc3F)ccn2)CC1 [Example 362, 2-{[4-(2-Dimethylaminoethyl)piperazin-1-yl]carbonylamino}-4-(2-fluoro-4-{3-[2-(4-fluorophenyl)acetyl]ureido}phenoxy)pyridine]
- IC50: 130 nM
